Test results taken from US20090192176A1, “1H-PYRAZOLO[3,4-D]PYRIMIDINE, PURINE, 7H-PURIN-8(9H)-ONE, 3H-[1,2,3]TRIAZOLO[4,5-D]PYRIMIDINE, AND THIENO[3,2-D]PYRIMIDINE COMPOUNDS, THEIR USE AS mTOR KINASE AND PI3 KINASE INHIBITORS, AND THEIR SYNTHESES” (Wyeth, priority 2008, published 2009).

Key:
MDA468 = assay: In vitro cell culture growth assay (MTS); type: cell-based; conditions: Homo sapiens, 72 h, breast line MDA468, three days after drug treatment
Experimental: In Vitro Cell Culture Growth Assay Methods:
Human tumor cell lines used include prostate lines LNCap and PC3MM2, breast lines MDA468, MCF7, renal line HTB44 (A498), colon line HCT116, and ovarian line OVCAR3. Cells were plated in 96-well culture plates. One day following plating, the inhibitors were added to cells. Three days after drug treatment, viable cell densities were determined by metabolic conversion (by viable cells) of the dye MTS, a well-established cell proliferation assay. The assays were performed using an assay kit purchased from Promega Corp. (Madison, Wis.) following the protocol supplied with the kit. The MTS assay results were read in a 96-well plate reader by measuring absorbance at 490 nm. The effect of each treatment was calculated as percent of control growth relative to the vehicle-treated cells grown in the same culture plate. The drug concentration that conferred 50% inhibition of growth was determined as IC50 (μg/ml).

Human mTOR = target: T1, Human mTOR (Homo sapiens, UniProt P42345); assay: mTOR kinase assay (DELFIA format, purified enzyme); type: biochemical; conditions: His6-S6K substrate, read-out: TOR Kinase IC50
T1 construct: FLAG
Experimental: mTOR Kinase Assay Methods
Human mTOR assays (See Toral-Barza, et al. Biochem Biophys. Res. Commun. 2005 Jun. 24; 332(1):304-10) with purified enzyme are performed in 96-well plates by DELFIA format as follows. Enzymes are first diluted in kinase assay buffer (10 mM HEPES (pH 7.4), 50 mM NaCl, 50 mM β-glycerophosphate, 10 mM MnCl2, 0.5 mM DTT, 0.25 mM microcystin LR, and […]). To each well, 12 μL of the diluted enzyme is mixed briefly with 0.5 μL test inhibitor or control vehicle dimethylsulfoxide (DMSO). The kinase reaction is initiated by adding 12.5 μL kinase assay buffer containing ATP and His6-S6K to give a final reaction volume of 25 μL containing 800 ng/mL FLAG-TOR, […] and […]. The reaction plate is incubated for 2 hours (linear at 1-6 hours) at room temperature with gentle shaking and then terminated by adding 25 μL Stop buffer (20 mM HEPES (pH 7.4), 20 mM EDTA, 20 mM EGTA). The DELFIA detection of the phosphorylated (Thr-389) His6-S6K is performed at room temperature using a monoclonal anti-P(T389)-p70S6K antibody (1A5, Cell Signaling) labeled with Europium-N1-ITC (Eu) (10.4 Eu per antibody, PerkinElmer). The DELFIA Assay buffer and Enhancement solution can be purchased from PerkinElmer. 45 μL of the terminated kinase reaction mixture is transferred to a MaxiSorp plate (Nunc) containing 55 μL PBS. The His6-S6K is allowed to attach for 2 hours after which the wells are aspirated and washed once with PBS. 100 μL of DELFIA Assay buffer with 40 ng/mL Eu-P(T389)-S6K antibody is added. The antibody binding is continued for 1 hour with gentle agitation. The wells are then aspirated and washed 4 times with PBS containing 0.05% Tween-20 (PBST). 100 μL of DELFIA Enhancement solution is added to each well and the plates are read in a PerkinElmer Victor model plate reader. Data obtained is used to calculate enzymatic activity and enzyme inhibition by potential inhibitors.

LNCap = assay: In vitro cell culture growth assay (MTS); type: cell-based; conditions: Homo sapiens, 72 h, prostate line LNCap, three days after drug treatment
PI3 Kinase γ = PI3 Kinase γ (Homo sapiens, UniProt P48736); assay: Fluorescence polarization assay for PI3K; type: biochemical
Experimental: (§1) Fluorescence Polarization Assay for PI3K
(§2) This assay is used to determine the IC50 of compounds of the present invention as it identifies inhibitors of PI3 kinase by measuring inhibition.
(§3) Reaction Buffer: 20 mM HEPES, pH 7.5, 2 mM MgCl2, 0.05% CHAPS; and 0.01% BME (added fresh) Stop/Detection Buffer: 100 mM HEPES, pH 7.5, 4 mM EDTA, 0.05% CHAPS; ATP 20 mM in water; PIP2 (diC8, cat# P-4508) 1 mM in water (MW=856.5); GST-GRP 1.75 mg/mL or 1.4 mg/mL in 10% glycerol; Red detector (TAMRA) 2.5 μM; Plate: Nunc 384 well black polypropylene fluorescence plate.
(§4) The assay is run by placing 5 μL of diluted enzyme per well, then 5 μL of diluted compound (or 9.5 μL enzyme then 0.5 μL compound in DMSO) is added and mixed. Then, 10 μL substrate is added to start the reaction. The samples are incubated 30-60 minutes, then the reaction is stopped by adding 20 μL stop/detector mix. PI3K is diluted with reaction buffer (e.g., 5 μL or 7.5 μL PI3K into 620 μL reaction buffer), and 5 μL of diluted enzyme is used per well. 5 μL reaction buffer or drug diluted in buffer (e.g., 4 μL/100 so final DMSO is 1% in reaction) is added to each. Pipetting up and down mixes the samples. Alternatively, the enzyme can be diluted to 1215 μL. In this case 9.8 μL is added per well and 0.2 μL compound is added in DMSO. To prepare 1 mL of substrate solution, 955 μL reaction buffer, 40 μL PIP2, and 2.5 μL ATP are mixed. 10 μL of substrate is added to each well to start the reaction.
(§5) Stop/detector mix is prepared by mixing 4 μL Red detector and 1.6 μL or 2.0 μL GST-GRP with 1 mL Stop buffer, which results in 10 nM probe and 70 nM GST-GRP). 20 μL of the stop/detector mix is added to each well to stop the reaction. The plates are read after 30-90 minutes keeping the red probe solutions dark. For the zero time point, stop/detector mix is added to the enzyme just before adding substrate. For an extra control, stop/detector mix is added to buffer (no enzyme) and substrate or to just buffer (no substrate). […] The recommended reaction has 0.06 μL per 20 μL (0.015 μg/20 μL) or 0.01125 μg/15 μL or 0.75 μg/mL. Plates are read on machines with filters for Tamra. The units are mP with no enzyme controls reading app 190-220 mP units. Fully active enzyme reduces fluorescence polarization down to 70-100 mP after 30 minutes. An active compound raises the mP values halfway to control or to 120-150 mP units.

PI3 Kinase α = PI3 Kinase α (Homo sapiens, UniProt P42336); assay: Fluorescence polarization assay for PI3K; type: biochemical
Experimental: as §1, §2, §3, §4, §5

[1] = test system: acute lymphoblastic leukemia; conditions: NOS/SCID xenograft mouse model of acute lymphoblastic leukemia; cited from earlier work

PI3 Kinase α, sequence (P42336 whole entry): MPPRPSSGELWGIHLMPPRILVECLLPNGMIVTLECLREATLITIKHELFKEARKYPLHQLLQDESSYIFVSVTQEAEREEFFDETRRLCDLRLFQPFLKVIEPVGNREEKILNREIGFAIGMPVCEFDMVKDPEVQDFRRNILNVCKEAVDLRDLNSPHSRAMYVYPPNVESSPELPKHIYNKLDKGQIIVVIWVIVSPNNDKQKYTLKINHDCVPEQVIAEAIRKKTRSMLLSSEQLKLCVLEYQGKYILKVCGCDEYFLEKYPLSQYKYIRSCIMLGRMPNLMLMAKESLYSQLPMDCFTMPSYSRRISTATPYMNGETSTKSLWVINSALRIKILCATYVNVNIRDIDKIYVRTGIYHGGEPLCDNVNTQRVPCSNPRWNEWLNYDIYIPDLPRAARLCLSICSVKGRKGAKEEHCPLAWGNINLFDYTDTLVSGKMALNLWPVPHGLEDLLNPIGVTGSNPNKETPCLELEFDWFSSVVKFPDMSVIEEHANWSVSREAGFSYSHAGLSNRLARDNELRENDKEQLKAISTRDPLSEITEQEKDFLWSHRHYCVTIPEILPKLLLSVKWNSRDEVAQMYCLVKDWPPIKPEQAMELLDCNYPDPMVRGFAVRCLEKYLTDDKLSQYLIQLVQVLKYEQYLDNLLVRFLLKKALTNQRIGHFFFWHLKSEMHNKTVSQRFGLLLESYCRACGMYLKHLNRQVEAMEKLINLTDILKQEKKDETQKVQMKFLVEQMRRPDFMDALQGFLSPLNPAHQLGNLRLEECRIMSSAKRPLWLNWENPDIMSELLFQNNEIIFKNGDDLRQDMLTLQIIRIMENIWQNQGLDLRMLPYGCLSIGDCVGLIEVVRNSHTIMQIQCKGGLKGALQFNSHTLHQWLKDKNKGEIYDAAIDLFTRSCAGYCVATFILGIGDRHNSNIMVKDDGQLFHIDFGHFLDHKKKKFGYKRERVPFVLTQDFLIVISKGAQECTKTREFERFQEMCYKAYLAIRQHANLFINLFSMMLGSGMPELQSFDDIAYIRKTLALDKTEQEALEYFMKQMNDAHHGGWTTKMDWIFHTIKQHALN
PI3 Kinase α, sequence (P27986 whole entry partner): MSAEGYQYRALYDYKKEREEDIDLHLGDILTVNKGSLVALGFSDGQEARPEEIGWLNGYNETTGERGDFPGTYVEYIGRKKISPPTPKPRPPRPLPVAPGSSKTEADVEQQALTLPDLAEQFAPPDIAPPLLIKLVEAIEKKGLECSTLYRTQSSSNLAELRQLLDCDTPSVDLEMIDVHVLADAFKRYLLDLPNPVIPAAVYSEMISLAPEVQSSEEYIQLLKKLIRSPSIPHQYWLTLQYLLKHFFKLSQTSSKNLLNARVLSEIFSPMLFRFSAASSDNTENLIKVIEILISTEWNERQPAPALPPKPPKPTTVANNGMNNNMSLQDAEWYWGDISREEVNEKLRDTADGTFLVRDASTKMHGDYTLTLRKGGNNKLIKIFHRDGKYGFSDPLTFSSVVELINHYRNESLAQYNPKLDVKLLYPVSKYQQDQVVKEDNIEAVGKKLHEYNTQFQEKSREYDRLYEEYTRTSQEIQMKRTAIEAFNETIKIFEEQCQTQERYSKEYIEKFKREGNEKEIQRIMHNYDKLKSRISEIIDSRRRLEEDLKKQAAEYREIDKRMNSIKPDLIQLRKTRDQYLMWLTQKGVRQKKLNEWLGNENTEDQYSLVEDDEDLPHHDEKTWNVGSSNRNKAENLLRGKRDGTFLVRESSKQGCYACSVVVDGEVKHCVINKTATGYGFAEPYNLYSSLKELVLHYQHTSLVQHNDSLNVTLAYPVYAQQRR
PI3 Kinase γ, sequence (P48736 whole entry): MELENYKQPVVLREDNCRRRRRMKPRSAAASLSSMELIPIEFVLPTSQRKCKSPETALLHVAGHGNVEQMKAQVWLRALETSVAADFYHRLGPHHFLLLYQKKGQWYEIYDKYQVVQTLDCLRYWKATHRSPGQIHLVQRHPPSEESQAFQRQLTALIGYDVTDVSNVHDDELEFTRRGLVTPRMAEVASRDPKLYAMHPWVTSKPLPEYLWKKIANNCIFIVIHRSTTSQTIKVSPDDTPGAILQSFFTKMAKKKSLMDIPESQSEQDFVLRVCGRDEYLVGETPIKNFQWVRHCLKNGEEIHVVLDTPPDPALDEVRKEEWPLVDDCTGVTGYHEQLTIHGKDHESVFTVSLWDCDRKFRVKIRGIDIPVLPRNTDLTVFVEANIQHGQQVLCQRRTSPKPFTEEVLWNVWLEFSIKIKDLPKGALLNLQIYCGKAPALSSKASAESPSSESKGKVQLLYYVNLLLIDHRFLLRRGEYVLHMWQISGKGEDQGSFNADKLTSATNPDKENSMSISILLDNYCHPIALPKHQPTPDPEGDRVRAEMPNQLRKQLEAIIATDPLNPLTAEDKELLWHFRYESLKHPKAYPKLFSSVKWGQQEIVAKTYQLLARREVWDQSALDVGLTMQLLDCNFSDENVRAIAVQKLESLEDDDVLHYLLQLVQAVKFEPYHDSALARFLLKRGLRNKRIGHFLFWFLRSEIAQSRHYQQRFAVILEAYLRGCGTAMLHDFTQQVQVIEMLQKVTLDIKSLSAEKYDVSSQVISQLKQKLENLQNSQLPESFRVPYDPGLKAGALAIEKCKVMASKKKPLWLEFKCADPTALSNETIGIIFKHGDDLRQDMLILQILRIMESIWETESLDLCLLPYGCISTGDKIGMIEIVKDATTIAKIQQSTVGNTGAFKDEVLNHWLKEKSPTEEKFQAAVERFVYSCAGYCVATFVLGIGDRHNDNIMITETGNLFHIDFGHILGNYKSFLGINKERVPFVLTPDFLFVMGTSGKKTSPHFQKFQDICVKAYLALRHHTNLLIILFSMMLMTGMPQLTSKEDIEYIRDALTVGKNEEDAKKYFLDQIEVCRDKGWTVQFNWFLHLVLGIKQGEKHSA

SMILES | IC50 (Human mTOR) | IC50 (LNCap) | IC50 (PI3 Kinase γ) | IC50 (PI3 Kinase α) | IC50 (MDA468) | activity in xenograft model [1]
Oc1cccc(-c2nc(C3=CCOCC3)c3cnn(-c4ccccc4)c3n2)c1 [Compound 1, 3-[4-(3,6-dihydro-2H-pyran-4-yl)-1-phenyl-1H-pyrazolo[3,4-d]pyrimidin-6-yl]phenol] | 17 nM | 2800 nM | 1890 nM | 48 nM | 8250 nM | 
CC(=O)Nc1ccc(-c2nc(C3=CCOCC3)c3cnn(C4CCN(Cc5ccccc5)CC4)c3n2)cc1 [Compound 3, N-{4-[1-(1-benzylpiperidin-4-yl)-4-(3,6-dihydro-2H-pyran-4-yl)-1H-pyrazolo[3,4-d]pyrimidin-6-yl]phenyl}acetamide] | 230 nM | 5000 nM | 3020 nM | 3090 nM | 11000 nM | 
CNC(=O)Nc1ccc(-c2nc(C3=CCOCC3)c3cnn(C4CCN(C(=O)c5cccnc5)CC4)c3n2)cc1 [Compound 5, 1-(4-{4-(3,6-dihydro-2H-pyran-4-yl)-1-[1-(pyridin-3-ylcarbonyl)piperidin-4-yl]-1H-pyrazolo[3,4-d]pyrimidin-6-yl}phenyl)-3-methylurea] | 8.4 nM | 2800 nM | 1180 nM | 2100 nM | 4000 nM | 
O=C(Nc1ccccc1)Nc1ccc(-c2nc(C3=CCOCC3)c3cnn(CC(F)(F)F)c3n2)cc1 [Compound 9, 1-{4-[4-(3,6-dihydro-2H-pyran-4-yl)-1-(2,2,2-trifluoroethyl)-1H-pyrazolo[3,4-d]pyrimidin-6-yl]phenyl}-3-phenylurea] | 2.6 nM | 96 nM | 74 nM | 43 nM | 230 nM | 
O=C(Nc1ccc(-c2nc(C3=CCOCC3)c3cnn(CC(F)(F)F)c3n2)cc1)OCCO [Compound 10a, 2-hydroxyethyl {4-[4-(3,6-dihydro-2H-pyran-4-yl)-1-(2,2,2-trifluoroethyl)-1H-pyrazolo[3,4-d]pyrimidin-6-yl]phenyl}carbamate] | 3550 nM | 170 nM | 3360 nM | 696 nM | 1200 nM | 
CO[C@H]1C[C@@H]2CC[C@@H](C)[C@@](O)(O2)C(=O)C(=O)N2CCCC[C@H]2C(=O)O[C@H]([C@H](C)C[C@@H]2CC[C@@H](OC(=O)C(C)(CO)CO)[C@H](OC)C2)CC(=O)[C@H](C)/C=C(\C)[C@@H](O)[C@@H](OC)C(=O)[C@H](C)C[C@H](C)/C=C/C=C/C=C/1C [Torisel] |  |  |  |  |  | active

More lines, in order of falling IC50 (Human mTOR), values ahead:

IC50 (Human mTOR) | IC50 (LNCap) | IC50 (PI3 Kinase γ) | IC50 (PI3 Kinase α) | SMILES | IC50 (MDA468) | activity in xenograft model [1]
670 nM | 11000 nM | > 10000 nM | 855 nM | Oc1cccc(-c2nc(C3CCOCC3)c3cnn(-c4ccccc4)c3n2)c1 [Compound 2, 3-[1-phenyl-4-(tetrahydro-2H-pyran-4-yl)-1H-pyrazolo[3,4-d]pyrimidin-6-yl]phenol] | 50000 nM | 
280 nM |  | 414 nM | 169 nM | O=c1[nH]c2nc(-c3cccc(O)c3)nc(C3=CCOCC3)c2[nH]1 [Compound 67, 6-(3,6-dihydro-2H-pyran-4-yl)-2-(3-hydroxyphenyl)-7,9-dihydro-8H-purin-8-one] | > 10000 nM | 
17 nM | 900 nM | 3220 nM | 2820 nM | CNC(=O)Nc1ccc(-c2nc(C3=CCOCC3)c3cnn(C4CCN(Cc5cccnc5)CC4)c3n2)cc1 [Compound 4, 1-(4-{4-(3,6-dihydro-2H-pyran-4-yl)-1-[1-(pyridin-3-ylmethyl)piperidin-4-yl]-1H-pyrazolo[3,4-d]pyrimidin-6-yl}phenyl)-3-methylurea] | 4200 nM | 
2.4 nM | 260 nM | 3030 nM | 212 nM | CNC(=O)Nc1ccc(-c2nc(C3=CCOCC3)c3cnn(CC(F)(F)F)c3n2)cc1 [Compound 6, 1-{4-[4-(3,6-dihydro-2H-pyran-4-yl)-1-(2,2,2-trifluoroethyl)-1H-pyrazolo[3,4-d]pyrimidin-6-yl]phenyl}-3-methylurea] | 950 nM | 
2.4 nM | 210 nM | > 10000 nM | 851 nM | CCNC(=O)Nc1ccc(-c2nc(C3=CCOCC3)c3cnn(CC(F)(F)F)c3n2)cc1 [Compound 10, 1-{4-[4-(3,6-dihydro-2H-pyran-4-yl)-1-(2,2,2-trifluoroethyl)-1H-pyrazolo[3,4-d]pyrimidin-6-yl]phenyl}-3-ethylurea] | 680 nM | 
1.4 nM | 72 nM | 1010 nM | 2330 nM | O=C(NCCF)Nc1ccc(-c2nc(C3=CCOCC3)c3cnn(CC(F)(F)F)c3n2)cc1 [Compound 7, 1-{4-[4-(3,6-dihydro-2H-pyran-4-yl)-1-(2,2,2-trifluoroethyl)-1H-pyrazolo[3,4-d]pyrimidin-6-yl]phenyl}-3-(2-fluoroethyl)urea] | 220 nM | 
0.75 nM | 380 nM | > 10000 nM | 66 nM | O=C(Nc1ccc(-c2nc(C3=CCOCC3)c3cnn(CC(F)(F)F)c3n2)cc1)Nc1cccnc1 [Compound 8, 1-{4-[4-(3,6-dihydro-2H-pyran-4-yl)-1-(2,2,2-trifluoroethyl)-1H-pyrazolo[3,4-d]pyrimidin-6-yl]phenyl}-3-pyridin-3-ylurea] | 7000 nM | 
